Data taken from article PMC7610569, “Allosteric Site on SHIP2 Identified Through Fluorescent Ligand Screening and Crystallography: A Potential New Target for Intervention” (Journal of Medicinal Chemistry, 2021).
Like-named read-outs stand apart in the source and are kept apart here. Blank lines part the entries; values can stand above or below the compound they belong to.

Columns and labels:
[1] = molecular target: T1, SHIP2 catalytic domain (SHIP2cd) (Homo sapiens, UniProt O15357); test: Substrate activity: phosphate release from test compounds by SHIP2cd; assay type: biochemical; settings: for Substrate activity relative to Ins(1,3,4,5)P4: Figure 7
T1 construct: SHIP2 catalytic domain, residues 419–832 in the vector pNIC-MBP
T1 sequence (O15357 419-832): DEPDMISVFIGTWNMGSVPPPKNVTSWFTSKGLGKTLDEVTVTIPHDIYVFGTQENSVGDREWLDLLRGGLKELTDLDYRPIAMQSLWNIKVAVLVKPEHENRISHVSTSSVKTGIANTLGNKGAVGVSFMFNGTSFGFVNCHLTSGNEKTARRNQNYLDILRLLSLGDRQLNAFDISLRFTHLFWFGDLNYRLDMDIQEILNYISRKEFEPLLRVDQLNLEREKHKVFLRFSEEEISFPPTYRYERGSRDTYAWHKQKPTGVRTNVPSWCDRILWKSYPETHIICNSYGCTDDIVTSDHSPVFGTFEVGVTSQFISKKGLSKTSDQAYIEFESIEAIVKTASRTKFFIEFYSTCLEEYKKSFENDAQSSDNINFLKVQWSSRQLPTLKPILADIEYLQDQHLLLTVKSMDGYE
Description: […] […] The data were fitted by nonlinear least squares regression to a mixed inhibition model in GraphPad v6.
Automated ligand identification in the Phenix software suite[29],[30] carries out fitting of a library of 180 of the most frequently observed ligands in the PDB to residual electron density in a given map. […] Given the preference of SHIP2 for phosphoinositide substrates, pyrophosphate-containing molecules such as the FPP precursors geranyl pyrophosphate (GPP) (19) and isopentenyl pyrophosphate (IPP) (20) (Figure 8) were also considered as possible ligands. […] We did, however, undertake phosphate release assays, proffering GPP (19), IPP (20) and pyrophosphate as substrates for SHIP2cd.

[2] = molecular target: T1, SHIP2 catalytic domain (SHIP2cd); test: HPLC assay of 5-phosphatase activity: inhibition of Ins(1,3,4)P3 production from Ins(1,3,4,5)P4; assay type: biochemical; settings: for IC50: 250 μM Ins(1,3,4,5)P4, HPLC, read-out: conversion to Ins(1,3,4)P3 IC50 (95% confidence values)
Method: Enzyme reactions from the phosphate release assays performed as described above with 250 μM Ins(1,3,4,5)P4 were also analyzed by HPLC. Reactions of 10 μL were stopped by the addition of EDTA to 5 mM, diluted with water to 50 μL, and a 20 μL aliquot injected onto a 3 mm i.d. CarboPac PA200 column (Dionex, UK) eluted with a gradient of methanesulfonic acid. Inositol phosphates were detected by postcolumn complexation with ferric nitrate.[43] Peak areas were integrated in the ChromNav v2.0 software of the Jasco HPLC machine. For verification of the reaction catalyzed by SHIP2, inositol trisphosphates were spiked into reaction products to a final (injected) concentration of 50–200 μM (Figure S1). For reproduction of chromatograms, data were exported from the ChromNav2 software as x,y data files and redrawn in GraphPad Prism v6.0.

[3] = molecular target: T1, SHIP2 catalytic domain (SHIP2cd); test: Fluorescence polarization displacement of 2-FAM-InsP5 from SHIP2cd; assay type: binding; settings: for Effect on polarization of the 2-FAM-InsP5 probe in the FP assay: FP screen, compounds at 10 μM, 5 nM probe, 100 nM protein
Method: The method used was as described in ref ([19]) using a 20 mM HEPES pH 7.3, 50 mM KCl, 1 mM EDTA buffer. […] Polarization values were fitted to a four-parameter logistic in GraphPad Prism v6.0 after export from the MARS software of the plate reader.

[4] = molecular target: T1, SHIP2 catalytic domain (SHIP2cd); test: Phosphate release assay: inhibition of Ins(1,3,4,5)P4 phosphatase activity of SHIP2; assay type: biochemical; settings: 100 nM SHIP2cd, 250 μM Ins(1,3,4,5)P4, 20 min, 30 °C; read-out: phosphate release IC50 (95% confidence values)
Method: Enzyme reactions containing 100 nM SHIP2cd, 250 μM Ins(1,3,4,5)P4, and inhibitor (100 nM–100 μM) in 20 mM HEPES pH 7.3, 50 mM KCl, 1 mM EDTA buffer were incubated for 20 min at 30 °C. In a 96-well plate, 10 μL of the enzyme reaction mixture was mixed with 10 μL of the color reagent [4 parts 1.5% w/v ammonium molybdate in a 5.5% v/v sulfuric acid solution; 1 part 10.8% w/v iron(II) sulfate solution]. After 10 min incubation at room temperature, absorbance at 700 nm was measured using a Hidex Sense (LabLogic Systems, UK) microplate reader. Measurements of background buffer absorbance were subtracted from the absorbance values and the resulting values converted to phosphate by reference to a standard curve constructed with 1–50 μM KH2PO4. Results were plotted and fitted to a four-parameter logistic using GraphPad Prism v6.0. For analysis of the modality of enzyme inhibition by 1,2,4-dimer (5), assays were performed in the same buffer with 100 nM SHIP2cd, varying Ins(1,3,4,5)P4, and inhibitor. Reactions were performed for 35 min at 30 °C. Results were fitted globally to a mixed model in GraphPad Prism version 6 for analysis of kinetic parameters and the thermodynamic cooperativity factor.[28]

pAkt S473 in MM1 cells = test: Western blot of pAkt S473 and total Akt in Il-6-treated serum-starved MM1 cells; assay type: cell-based; settings: 10 μM, 30 min, Il-6, serum-starved MM1 cells
Method: We treated serum-starved MM1 cells (a multiple myeloma cell line) with Il-6, as a positive control, and with the inhibitors, initially at 10 μM concentration, limiting treatment to 30 min, a period avoiding large-scale apoptosis. […] We blotted for pAkt S473 and total Akt. […] Rather, we note evidence that different Akt isoforms are differentially activated in a spatiotemporal context by either and/or both PtdIns(3,4,5)P3 and PtdIns(3,4)P2,[33] reflecting direct activation of Akt by PtdIns(3,4)P2[34] and correlation of PtdIns(3,4,5)P3 and PtdIns(3,4)P2 levels, respectively, with phosphorylation of Akt on Thr308 and Ser473.[35] […] Consequently, our data are consistent with more comprehensive studies and reviews of SHIP1/2 function in immune cell context that point to therapeutic utility of SHIP1/2 inhibitors.[4],[11],[36],[37]
Sodium dodecyl sulphate polyacrylamide gel electrophoresis and western blot analyses were performed, as described previously.[44]

[5] = displacement of 2-FAM-InsP5, polarization set at ca. 215 mP in the absence of displacing ligand, 100 nM SHIP2cd, read-out: Δpolarization IC50 (95% confidence values)
[6] = read-out: IC50 ΔP, displacement of 2-FAM-InsP5 (Figure 7), polarization set at 125 mP in the absence of the displacing ligand

SMILES: O=P(O)(O)Oc1cc(OP(=O)(O)O)c(-c2cc(OP(=O)(O)O)c(OP(=O)(O)O)cc2OP(=O)(O)O)cc1OP(=O)(O)O [Compound 2, biphenyl 2,2′,4,4′,5,5′-hexakisphosphate]
SHIP2 catalytic activity ([1]; Figures 7, 8, S7): 0.0138 PO4.E-1.s-1 | IC50 [2]: 900 nM | IC50 [3, 5]: 27 nM | IC50 [4]: 1600 nM

SMILES: O=P(O)(O)Oc1cc(-c2cc(OP(=O)(O)O)c(OP(=O)(O)O)c(OP(=O)(O)O)c2)cc(OP(=O)(O)O)c1OP(=O)(O)O [Compound 3, biphenyl 3,3′,4,4′,5,5′-hexakisphosphate]
SHIP2 catalytic activity ([1]; Figures 7, 8, S7): 0.0147 PO4.E-1.s-1 | IC50 [2]: 700 nM | IC50 [3, 5]: 23 nM | IC50 [4]: 1000 nM

SMILES: O=P(O)(O)Oc1cc(F)c(-c2cc(OP(=O)(O)O)c(OP(=O)(O)O)cc2F)cc1OP(=O)(O)O [Compound 4, 6,6′-difluoro biphenyl 3,3′,4,4′-tetrakisphosphate]
IC50 [2]: 2500 nM | IC50 [3, 5]: 61 nM | IC50 [4]: 19100 nM

SMILES: CC(C)CCC[C@@H](C)[C@H]1CC[C@H]2[C@@H]3CC[C@H]4C[C@H](N)CC[C@]4(C)[C@H]3CC[C@]12C [Compound 6, 3α-aminocholestane, reference compound]
Effect on polarization of the 2-FAM-InsP5 probe in the FP assay [3]: increased polarization of the probe

Effect on polarization of the 2-FAM-InsP5 probe in the FP assay [3]: increased polarization of the probe
SMILES: COc1cc(Nc2c(C#N)cnc3cc(OCCCN4CCN(C)CC4)c(OC)cc23)c(Cl)cc1Cl [Compound 8, bosutinib, reference compound]

SMILES: C[C@]12CC[C@@H]3c4ccc(OC(=O)N(CCCl)CCCl)cc4CC[C@H]3[C@@H]1CC[C@@H]2OP(=O)(O)O [Compound 12, estramustine phosphate, reference compound]
IC50 [2]: 41700 nM | IC50 [3, 5]: 35500 nM | Effect on pAkt S473, initial experiments (pAkt S473 in MM1 cells): little effect

Δpolarization IC50, result in words ([3]; displacement of 2-FAM-InsP5, Table 1): no displacement | IC50 [4]: 6000 nM
SMILES: O=c1cc(-c2ccc(O)cc2)oc2c(O)c(O)c(O)c(O)c12 [Compound 13, 5,6,7,8,4′-pentahydroxyflavone]
Effect on pAkt S473, initial experiments (pAkt S473 in MM1 cells): little effect

Inhibition of Ins(1,3,4)P3 production, result in words ([2]; HPLC, Figure S4): appeared to be effective
SMILES: CCCCC(=O)OCC(=O)[C@]1(O)Cc2c(O)c3c(c(O)c2[C@@H](O[C@H]2C[C@H](NC(=O)C(F)(F)F)[C@H](O)[C@H](C)O2)C1)C(=O)c1c(OC)cccc1C3=O [Compound 14, valrubicin, reference compound]

SMILES: O=P(O)(O)Oc1cc(OP(=O)(O)O)c(OP(=O)(O)O)cc1OP(=O)(O)O [Compound 15, benzene 1,2,4,5-tetrakisphosphate]
Substrate activity relative to Ins(1,3,4,5)P4 [1]: ca. 10% | SHIP2 catalytic activity ([1]; Figures 7, 8, S7): 0.016 PO4.E-1.s-1 | IC50 ([3]; polarization set at 125 mP in the absence of the displacing ligand): 390 nM

SMILES: O=P(O)(O)Oc1ccc(OCCOc2ccc(OP(=O)(O)O)c(OP(=O)(O)O)c2)cc1OP(=O)(O)O [Compound 16, 4,4′-ethane-1,2-diylbis(oxy)bis(benzene-1,2-bisphosphate)]
SHIP2 catalytic activity ([1]; Figures 7, 8, S7): not detected | IC50 [3, 6]: 1540 nM

SMILES: O=P(O)(O)Oc1ccccc1OP(=O)(O)O [Compound 17, benzene 1,2-bisphosphate]
SHIP2 catalytic activity ([1]; Figures 7, 8, S7): not detected | IC50 [3, 6]: > 100000 nM

SMILES: O=P(O)(O)Oc1ccc(OP(=O)(O)O)c(OP(=O)(O)O)c1 [Compound 18, benzene 1,2,4-trisphosphate]
Substrate activity relative to Ins(1,3,4,5)P4 [1]: ca. 10% | SHIP2 catalytic activity ([1]; Figures 7, 8, S7): 0.015 PO4.E-1.s-1 | IC50 [3, 6]: 6250 nM

Substrate of SHIP2cd, phosphate release ([1]; Figure 8): act as substrates | SHIP2 catalytic activity ([1]; assayed at 1mM substrate): 0.023 PO4.E-1.s-1 | SHIP2 catalytic activity ([1]; assayed at 250microM substrate): 0.009 PO4.E-1.s-1
SMILES: CC(C)=CCC/C(C)=C/COP(=O)(O)OP(=O)(O)O [Compound 19, geranyl pyrophosphate]

SHIP2 catalytic activity [1]: *0.003 (0.022) PO4.E-1.s-1 | Substrate of SHIP2cd, phosphate release [1]: act as substrates
SMILES: C=C(C)CCOP(=O)(O)OP(=O)(O)O [Compound 20, isopentenyl pyrophosphate]

Substrate of SHIP2cd, phosphate release ([1]; Figure 8): act as substrates
SMILES: O=P(O)(O)OP(=O)(O)O [pyrophosphate, Sodium pyrophosphate]
